One data set concerns Lepomis macrochirus. As to conditions: acute; duration: 96 hours; mortality.
The test system of the next data set is Anas platyrhynchos. As to conditions: short-term; oral; feed; mortality.
A further data set relates to Daphnia magna. As to conditions: chronic/long-term; duration: 21 days; growth.
Another data set relates to Apis mellifera. As to conditions: acute; duration: 48 hours; oral; unspecified; mortality.
The next data set concerns Bibionidae. As to conditions: chronic/long-term; duration: 28 days; seedling emergence.
The subject of another data set is Canidae. As to conditions: chronic; duration: 52 weeks; oral; Dog Other; body weight.
For the next data set, the system named is Mus musculus. As to conditions: chronic; duration: 2 years; organ weight.
The test system of another data set is Pimephales promelas. As to conditions: chronic/long-term; duration: 278 days; growth.
In a further data set the test system is Folsomia candida. As to conditions: chronic/long-term; duration: 28 days.
Another data set relates to Oryctolagus sp. As to conditions: developmental; development.
The next data set relates to Rattus norvegicus. As to conditions: for NOEC: chronic, M.
The subject of the next data set is Aphidius rhopalosiphi. In words: LR50; higher = less toxic. As to conditions: not reported; mortality.

≈ marks a conversion by molar mass, not a printed value.

The results in this text go back to EPA's ToxValDB 9.5 (doi:10.2903/j.efsa.2008.137r).

One may read the NOAEL as the highest dose or exposure tested at which no adverse effect was seen.

With `O=[N+]([O-])c1cc(C(F)(F)F)c(Cl)c([N+](=O)[O-])c1Nc1ncc(C(F)(F)F)cc1Cl` [Fluazinam], the LC50 was 0.055 µg/mL (≈ 0.118 µM) in the data set with Lepomis macrochirus; > 1230 mg/kg-day with Anas platyrhynchos; > 1000 mg/kg in the data set with Tagia sp. (acute, duration: 14 days, mortality). For the same compound, the NOEC in the data set on Daphnia magna is 0.0125 mg/L; in the data set with Colinus virginianus (reproduction developmental), 60.4 mg/kg-day; in the data set on Bibionidae, 0.00625 mg/L; with Tagia sp. (chronic/long-term, duration: 28 days), 0.35 mg/kg; in the data set with Pimephales promelas, 0.0029 mg/L; in the data set with Folsomia candida it was < 1.57 mg/kg. Also, the NOEC in the data set with Rattus norvegicus is 5 mg/kg-day; in the data set on Rattus norvegicus (mortality) it was 100 mg/kg-day. Further, the LD50 in the data set with Apis mellifera is > 100 µg/piece; in the data set with Colinus virginianus (acute, oral, mortality) it was 1780 mg/kg-day; with Rattus norvegicus (acute, F, mortality), 4100 mg/kg-day. Besides, the NOAEL in the data set with Canidae was 1 mg/kg-day; with Mus musculus, 1.12 mg/kg-day; in the data set with Oryctolagus sp. it was 7 mg/kg-day. For the same compound, in the data set on Aphidius rhopalosiphi, the LR50 is > 200 g/ha.
